The values below come from patent US20240239759A1, “ISOXAZOLINE COMPOSITIONS AND THEIR USE AS ANTIPARASITICS” (Intervet Inc., priority 2007, published 2024).

This experiment deals with cat fleas (Ctenocephalides felis). As to the kind of experiment: Efficacy of various isoxazolines against cat fleas on mice (Example 3). In kind it is in vivo. As to conditions: for pest or weed control at 20 mg/kg: Ctenocephalides felis, po, read-out: Flea inhibition relative to negative control. The protocol: In this experiment, mice were randomly assigned to a treatment group or a negative control (untreated) group. Each group consisted of three mice. The mice in the treatment groups were orally administered 20 mg/kg bodyweight of various isoxazolines dissolved in 7% DMF-premix and 93% purified water (aqua ad injectabilia). The application volume of these treatments was 0.01 mL/g bodyweight. One hour after treatment, each mouse was sedated and generally infested (whole body) with 30 vital, adult fleas (C. felis). To achieve this, the sedated mice were placed into an infestation-jar, and the fleas were placed directly onto the fur. After approximately 30 minutes of feeding, fleas were recovered from the mice. Assessments for inhibition and mortality were conducted 1 hr, 24 hr, and 48 hr after each infestation. The efficacy was calculated as the percentage of inhibited fleas in the treatment groups relative to the negative control group.

The mark [1] stands for this setting: 1 h, mice, oral 20 mg/kg, infested 1 hr after treatment, 1 hr after infestation.
Setting [2] is: 24 h, mice, oral 20 mg/kg, infested 1 hr after treatment, 24 hr after infestation.
Where [3] appears, read: 48 h, mice, oral 20 mg/kg, infested 1 hr after treatment, 48 hr after infestation.
Where [4] appears, read: mice, oral 20 mg/kg, infested 1 hr after treatment, 1 hr after infestation.

Where two headings read alike, the source gives them in different places.

In the case of `Cc1cc(C2=NOC(c3cc(Cl)c(F)c(C(F)(F)F)c3)(C(F)(F)F)C2)ccc1C(=O)NCC(=O)NCC(F)(F)F` (stereo not shown) [Compound 5-41], the pest or weed control at 20 mg/kg under setting [1] came to 0%, the pest or weed control at 20 mg/kg under setting [2] amounted to 94.3% and the pest or weed control at 20 mg/kg under setting [3] was 95.6%.
On the same counts, the results for `COCN(C(=O)c1ccc(C2=NOC(c3cc(Cl)cc(Cl)c3)(C(F)(F)F)C2)cc1C)c1ncc(Cl)cn1` (stereo not shown) [Compound 5-28] are 1.1%, 70% and 71.1%.
With `COC(=O)N(COC(C)C)C(=O)c1ccc(C2=NOC(c3cc(Cl)cc(Cl)c3)(C(F)(F)F)C2)cc1C` (stereo not shown) [Compound 5-27], the pest or weed control at 20 mg/kg was determined as 12.2% under setting [1], 72.2% under setting [2] and 84.4% under setting [3].
On to `Cc1cc(C2=NOC(CCl)(c3cc(Cl)cc(Cl)c3)C2)ccc1C(=O)NCc1ccccn1` (stereo not shown) [Compound 5-13], for which the pest or weed control at 20 mg/kg under setting [1] is 16.7%, the pest or weed control at 20 mg/kg under setting [2] came to 18.9% and the pest or weed control at 20 mg/kg under setting [3] worked out at 18.9%.
Regarding `Cc1cc(C2=NO[C@@](c3cc(Cl)cc(Cl)c3)(C(F)(F)F)C2)ccc1C(=O)NCC(=O)NCC(F)(F)F` (stereo in doubt) [Compound 17-1], the pest or weed control at 20 mg/kg turned out to be 100% under setting [1], 100% under setting [2] and 100% under setting [3].
Regarding `CCO/C(N)=N\C(=O)c1ccc(C2=NOC(c3cc(Br)cc(Br)c3)(C(F)(F)F)C2)cc1C` (stereo not shown) [Compound 5-37], the pest or weed control at 20 mg/kg is, setting by setting: under setting [1], 7.7%; under setting [2], 99%; under setting [3], 100%.
On the same counts, the results for `COC(=O)N(C)C(=O)c1ccc(C2=NOC(c3cc(Cl)cc(Cl)c3)(C(F)(F)F)C2)cc1I` (stereo not shown) [Compound 5-20] are 4.4%, 96.7% and 97.8%.
As for `COCN(C(=O)OC)C(=O)c1ccc(C2=NOC(c3cc(Cl)cc(Cl)c3)(C(F)(F)F)C2)cc1Br` (stereo not shown) [Compound 5-26], the pest or weed control at 20 mg/kg runs as follows: under setting [1], 0%; under setting [2], 77.8%; under setting [3], 77.8%.
For `COCN(C(=O)OC)C(=O)c1ccc(C2=NOC(c3cc(Cl)cc(Cl)c3)(C(F)(F)F)C2)cc1I` (stereo not shown) [Compound 5-29], the pest or weed control at 20 mg/kg under setting [1] was determined as 0%, the pest or weed control at 20 mg/kg under setting [2] was found to be 68.9% and the pest or weed control at 20 mg/kg under setting [3] worked out at 68.9%.
For the compound `Cc1cc(C2=NOC(c3cc(Cl)cc(Cl)c3)(C(F)(F)F)C2)ccc1C(=O)N(C(=O)C(C)C)c1ncc(Cl)cn1` (stereo not shown) [Compound 5-23], the pest or weed control at 20 mg/kg is 0% under setting [1], 87.8% under setting [2] and 94.4% under setting [3].
On the same counts, the results for `CC(=O)N(C(=O)c1ccc(C2=NOC(c3cc(Cl)cc(Cl)c3)(C(F)(F)F)C2)cc1C)N(C)c1ccccc1` (stereo not shown) [Compound 5-57] are 0%, 86.7% and 87.7%.
As for `COC(=O)N(C(=O)c1ccc(C2=NOC(c3cc(Cl)cc(Cl)c3)(C(F)(F)F)C2)cc1C)c1ncc(Cl)cn1` (stereo not shown) [Compound 5-48], the pest or weed control at 20 mg/kg under setting [2] came out at 91.1% and the pest or weed control at 20 mg/kg under setting [3] was 91.1%.
Turning to `COC(=O)N(C(=O)c1ccc(C2=NOC(c3cc(Cl)cc(Cl)c3)(C(F)(F)F)C2)cc1C)c1ncc(C#N)cn1` (stereo not shown) [Compound 5-31], the pest or weed control at 20 mg/kg under setting [1] stood at 0%, the pest or weed control at 20 mg/kg under setting [2] was 65.6% and the pest or weed control at 20 mg/kg under setting [3] was 65.6%.
As to `Cc1cc(C2=NOC(c3cc(Cl)c(F)c(Cl)c3)(C(F)(F)F)C2)ccc1C(=O)NCC(=O)NCC(F)(F)F` (stereo not shown) [Compound 5-40], the pest or weed control at 20 mg/kg by setting is: (1 h) 0%; (24 h) 85.6%; (48 h) 85.6%.
Turning to `Cc1cc(C2=NOC(c3cc(Cl)cc(Cl)c3)(C(F)(F)F)C2)ccc1C(=S)NCc1cscn1` (stereo not shown) [Compound X-1], the pest or weed control at 20 mg/kg runs as follows: under setting [1], 4.3%; under setting [2], 100%; under setting [3], 100%.
Regarding `CCc1cc(C2=NOC(c3cc(Cl)cc(Cl)c3)(C(F)(F)F)C2)ccc1C(=O)NCC(F)(F)F` (stereo not shown) [Compound 5-15], the pest or weed control at 20 mg/kg was found to be 0% under setting [1], 31.1% under setting [2] and 36.7% under setting [3].
As for `O=C(CNC(=O)c1ccc(C2=NOC(c3cc(C(F)(F)F)cc(C(F)(F)F)c3)(C(F)(F)F)C2)cc1)NCC(F)(F)F` (stereo not shown) [Compound 5-34], the pest or weed control at 20 mg/kg under setting [1] was determined as 2.3%, the pest or weed control at 20 mg/kg under setting [2] is 96.6% and the pest or weed control at 20 mg/kg under setting [3] is 96.6%.
For `C#CCNC(=O)CNC(=O)c1ccc(C2=NOC(c3cc(Cl)cc(Cl)c3)(C(F)(F)F)C2)cc1C` (stereo not shown) [Compound 5-67], the pest or weed control at 20 mg/kg was 80% under setting [1], 100% under setting [2] and 100% under setting [3].
`CC(=O)N(C(=O)c1ccc(C2=NOC(c3cc(Cl)cc(Cl)c3)(C(F)(F)F)C2)cc1C)c1cnccn1` (stereo not shown) [Compound 5-32]: the pest or weed control at 20 mg/kg is, setting by setting: under setting [1], 0%; under setting [2], 70%; under setting [3], 71.1%.
On the same counts, the results for `COC(=O)N(C(=O)c1ccc(C2=NOC(c3cc(Cl)cc(Cl)c3)(C(F)(F)F)C2)cc1C)c1cnc(Cl)cn1` (stereo not shown) [Compound 5-17] are 0%, 36.7% and 41.1%.
On the same counts, the results for `Cc1cc(C2=NOC(c3cc(Cl)cc(Cl)c3)(C(F)(F)F)C2)ccc1C(=O)Nc1cncnc1` (stereo not shown) [Compound 5-55] are 0%, 92.2% and 93.3%.
For the compound `Cc1cc(C2=NOC(c3cc(Cl)cc(Cl)c3)(C(F)(F)F)C2)ccc1C(=O)NC(C)C(=O)NCC(F)(F)F` (stereo not shown) [Compound 5-54], the “Flea inhibition relative to negative control” value under setting [4] is given as 5-47 (0%), 5-54 (0%),.
For `COC(CNC(=O)c1ccc(C2=NOC(c3cc(Cl)cc(Cl)c3)(C(F)(F)Cl)C2)cc1C)OC` (stereo not shown) [Compound 5-53], the pest or weed control at 20 mg/kg is, setting by setting: under setting [1], 0%; under setting [2], 82.2%; under setting [3], 91.1%.
On the same counts, the results for `CC(=O)N(C(=O)c1ccc(C2=NOC(c3cc(Cl)cc(Cl)c3)(C(F)(F)F)C2)cc1C)c1ncc(C#N)cn1` (stereo not shown) [Compound 5-30] are 2.2%, 67.8% and 68.9%.
On to `CCN(C(=O)c1ccc(C2=NOC(c3cc(Cl)cc(Cl)c3)(C(F)(F)F)C2)cc1C)c1ncc(Cl)cn1` (stereo not shown) [Compound 5-21], for which the pest or weed control at 20 mg/kg is, setting by setting: under setting [1], 0%; under setting [2], 75.6%; under setting [3], 77.8%.
As for `Cc1cc(C2=NOC(c3cc(Cl)cc(Cl)c3)(C(F)(F)F)C2)ccc1C(=O)N(C(=O)C1CC1)c1ncc(Cl)cn1` (stereo not shown) [Compound 5-24], the pest or weed control at 20 mg/kg runs as follows: under setting [1], 0%; under setting [2], 84.4%; under setting [3], 86.7%.
On the same counts, the results for `CC(=O)N(C(=O)c1ccc(C2=NOC(c3cc(Cl)cc(Cl)c3)(C(F)(F)F)C2)cc1C)c1ncc(Br)cn1` (stereo not shown) [Compound 5-22] are 0%, 82.2% and 83.3%.
Consider `CCO/N=C\NC(=O)c1ccc(C2=NOC(c3cc(Cl)cc(Cl)c3)(C(F)(F)F)C2)cc1C` (stereo not shown) [Compound 5-50], for which the “Flea inhibition relative to negative control” value under setting [4] is listed as “(27.7%)”.
For the compound `CC(NC(=O)c1ccc(C2=NOC(c3cc(Cl)c(Cl)c(Cl)c3)(C(F)(F)F)C2)cc1)C(=O)NCC(F)(F)F` (stereo not shown) [Compound 5-35], the pest or weed control at 20 mg/kg by setting is: under setting [1], 0%; under setting [2], 100%; under setting [3], 100%.
On to `Cc1cc(C2=NOC(c3cc(Cl)cc(Cl)c3)(C(F)(F)F)C2)ccc1C(=O)NC1CCCO1` (stereo not shown) [Compound 5-64], for which the pest or weed control at 20 mg/kg under setting [1] amounted to 50%, the pest or weed control at 20 mg/kg under setting [2] was found to be 97.8% and the pest or weed control at 20 mg/kg under setting [3] was 97.8%.
`COC(=O)N(C)C(=O)c1ccc(C2=NOC(c3cc(Cl)cc(Cl)c3)(C(F)(F)F)C2)cc1C` (stereo not shown) [Compound 5-16]: the pest or weed control at 20 mg/kg runs as follows: under setting [1], 0%; under setting [2], 46.7%; under setting [3], 54.4%.
For the compound `Cc1cc(C2=NO[C@](c3cc(Cl)cc(Cl)c3)(C(F)(F)F)C2)ccc1C(=O)NCC(=O)NCC(F)(F)F` [Compound 11-1R], the pest or weed control at 20 mg/kg under setting [1] came out at 0%, the pest or weed control at 20 mg/kg under setting [2] was 0% and the pest or weed control at 20 mg/kg under setting [3] was 0%.
For `CCO/C(N)=N\C(=O)c1ccc(C2=NOC(c3cc(Cl)cc(Cl)c3)(C(F)(F)Cl)C2)cc1C` (stereo not shown) [Compound 5-38], the pest or weed control at 20 mg/kg was 2.3% under setting [1], 96.7% under setting [2] and 97.7% under setting [3].
On the same counts, the results for `Cc1cc(C2=NOC(c3cc(Cl)cc(Cl)c3)(C(F)(F)F)C2)ccc1C(=O)N(C(=O)C(C)C)c1ncc(C#N)cn1` (stereo not shown) [Compound 5-18] are 0%, 54.4% and 54.4%.
